Inhibition and haemolysis data for 20 molecules are collected here from PubChem BioAssay AID2061108 (Research group of Professor Matthew Todd, School of …, 2025).

Common to all, as to experiment: microbial growth inhibition plus red cell haemolysis – Idler compounds, first plate, PMBN-permeabilized strains, profiling panel (AID 2061108)
What all share (parameters): haemolysis: dose or concentration left out as unconfirmed

Assay [1] concerns A. baumannii ATCC 17978 + PMBN growth inhibition, 100 uM. As to conditions: A. baumannii plus PMBN growth inhibition, 100 µM; stronger effect = higher value.
Assay [2] has as its system A. baumannii ATCC 17978 growth inhibition, 100 uM. Conditions: S. aureus ATCC 9144 growth inhibition; measured here: A. baumannii ATCC 17978; at 100 µM; stronger effect = higher value.
Assay [3] concerns C. albicans NCPF 3281 growth inhibition, 100 uM. Conditions: S. aureus ATCC 9144 growth inhibition; measured here: C. albicans NCPF 3281; at 100 µM; stronger effect = higher value.
The test system of assay [4] is E. coli NCTC 12923 + PMBN growth inhibition, 100 uM. Conditions: S. aureus ATCC 9144 growth inhibition; measured here: E. coli plus PMBN; at 100 µM; stronger effect = higher value.
The subject of assay [5] is E. coli NCTC 12923 growth inhibition, 100 uM. Conditions: E. coli NCTC 12923 growth inhibition, 100 µM; stronger effect = higher value.
Assay [6] deals with M. abscessus growth inhibition, 10 uM. As to conditions: S. aureus ATCC 9144 growth inhibition; measured here: M. abscessus; at 10 µM.
The subject of assay [7] is M. avium growth inhibition, 10 uM. Conditions: M. avium growth inhibition, 10 µM.
Assay [8] has as its system S. aureus ATCC 9144 growth inhibition, 100 uM. Conditions: S. aureus ATCC 9144 growth inhibition; at 100 µM; stronger effect = higher value.
The test system of assay [9] is red blood cell haemolysis. Conditions: stronger effect = higher value; dose or concentration not given here.

Molecules are shown by their SMILES. The source made the active and inactive calls. How the calls were made is not given here.

Turning to `COc1ccc2c(c1)nc(-c1c[nH]c3cc(N4CCOCC4)ccc13)c1[nH]ccc12`, the inhibition in [1] was 95.9%; in assay [2] it was 53.1%; in assay [3] it was -104%; in assay [4], 98.5%; in assay [5] it was 14.1%; in assay [6] it was 0.186%. For the same molecule, the inhibition was 1.53% in assay [7] and 101% in assay [8]. Further, the haemolysis in [9] came out at 0.675%.
As for `Cc1cc(C)c(S(=O)(=O)N2CCC(C(=O)NCc3cccnc3)CC2)c(C)c1`, the inhibition was 25.7% in assay [1]; -2.53% in assay [2]; -44.9% in [3]; 5.73% in assay [4]; -1.08% in assay [5]; 0.182% in assay [6]. Besides, the inhibition in assay [7] is -0.596%; in assay [8] it was 12.6% (inactive). In [9], the haemolysis is 0.266%.
Turning to `N#Cc1cc(-c2cccc(Cl)c2)no1`, the inhibition was 26.6% in assay [1]; -0.723% in [2]; -135% in [3]; 1.71% in assay [4]; -0.811% in assay [5]; 0.0599% in assay [6]. The inhibition in [7] was 0.349%; in [8], 15.6% (inactive). Further, the haemolysis in assay [9] came to 6.05%.
Turning to `CCS(=O)(=O)c1ccc(CNc2nc3ccccc3cc2C#N)s1`, the inhibition was 28.4% in [1]; -4.82% in [2]; -73.7% in assay [3]; -0.61% in assay [4]; -13.4% in [5]; 0.173% in [6]. For the same molecule, the inhibition in assay [7] is -0.121%; in [8], 22.3% (inactive). The haemolysis in assay [9] turned out to be 0.247%.
As to `O=C(NC1(c2ccc(Cl)cc2)COC1)c1ccc(N2CCCCC2)cc1`, the inhibition in assay [1] is 13.9%; in [2] it was -22.2%; in assay [3] it was -54.3%; in assay [4], -14%; in assay [5], -30%; in assay [6] it was -0.149%. Also, the inhibition in assay [7] is 0.252%; in assay [8] it was 4.21% (inactive). Besides, the haemolysis in assay [9] was determined as 0.302%.
For the molecule `COc1ccc(-c2nc(N3CCC(N(C)C)C3)c3cc(OC)c(OC)cc3n2)cc1` (stereo not given), the inhibition is 39.9% in assay [1]; -3.73% in [2]; 2.3% in assay [3]; -11% in assay [4]; 6.35% in [5]; 0.735% in assay [6]. The inhibition in assay [7] is 3.41%; in assay [8], 10.4% (inactive). Further, the haemolysis in [9] stood at 0.312%.
As for `C=CC(=O)N1CCCc2c(C(=O)O)cccc21`, the inhibition in assay [1] was 18.6%; in [2], -1.2%; in assay [3] it was -51.3%; in assay [4], -5.12%; in assay [5] it was -5.27%; in assay [6], -0.114%. Also, the inhibition in assay [7] is 0.285%; in assay [8], 17% (inactive). In addition, in [9], the haemolysis was found to be 0.129%.
Regarding `Cn1nc(C(C)(C)C)cc1NC(=O)Nc1ccc(Cl)cc1`, the inhibition in assay [1] is 83%; in assay [2], -12%; in [3] it was -75.2%; in assay [4] it was 99.4%; in assay [5] it was 12.6%; in assay [6], -0.347%. The inhibition is 0.442% in assay [7] and -18.4% in assay [8]. In addition, the haemolysis in assay [9] worked out at 0.904%.
Take `Cn1c(=O)oc2cc(S(=O)(=O)NC3CC4CCC3C4)ccc21` (stereo not given): the inhibition in assay [1] is 25.8%; in assay [2], -1.79%; in assay [3], -18.8%; in assay [4] it was -2.35%; in [5], -0.946%; in assay [6] it was -0.526%. Besides, the inhibition in assay [7] was -0.637%; in [8], 17.3% (inactive). In addition, the haemolysis in assay [9] was -0.134%.
With `Cc1cc(NC(=O)c2ccc(F)c(C(C)(C)C#N)c2)nn1C`, the inhibition in assay [1] was 22.3%; in [2], -0.843%; in assay [3], -51.4%; in assay [4] it was -1.71%; in assay [5] it was -2.97%; in [6], 0.104%. For the same molecule, the inhibition in [7] is -0.0495%; in [8], 1.75% (inactive). Further, the haemolysis in [9] is 0.0361%.
Regarding `FC(F)Oc1ccc(-c2nnc3cncc(OCCCC(F)(F)F)n23)cc1`, the inhibition in assay [1] was 4.86%; in assay [2], -14.8%; in assay [3] it was -49.2%; in assay [4] it was -9.02%; in assay [5] it was -7.16%; in assay [6] it was -0.237%. Also, the inhibition in [7] was -0.289%; in assay [8], -9.47% (inactive). Also, the haemolysis in assay [9] turned out to be 0.0506%.
`CC(C)CC(N)C(=O)NS(=O)(=O)c1cccc(-c2cc3ncnc(N)c3s2)c1` (stereo not given): the inhibition is -8.7% in assay [1]; -8.69% in assay [2]; 43.5% in [3]; -22.3% in assay [4]; -84.3% in [5]; -0.687% in [6]. Besides, the inhibition in [7] is 12%; in assay [8], -17.7% (inactive). Also, in assay [9], the haemolysis was -0.408%.
For the molecule `CCC(C)C(N)C(=O)NS(=O)(=O)c1cccc(-c2cc3ncnc(N)c3s2)c1` (stereo not given), the inhibition was -15.9% in assay [1]; -17.8% in assay [2]; -21.7% in assay [3]; -27.4% in assay [4]; -29.6% in assay [5]; -0.383% in [6]. Further, the results for the inhibition in assay [7] and in assay [8] were 10.3% and -39.6% (inactive), respectively. Besides, the haemolysis in [9] turned out to be 0.094%.
For `CC(Nc1ccc2oc(=O)[nH]c2c1)C(=O)Nc1ccccc1C#N` (stereo not given), the inhibition in [1] was 14.5%; in [2], -0.833%; in [3] it was 28%; in assay [4] it was -6.79%; in [5] it was -4.73%; in assay [6], -1.22%. Besides, the inhibition in assay [7] is 0.0692%; in [8], 8.83% (inactive). The haemolysis in [9] turned out to be 0.275%.
In the case of `O=C(Cc1ccc(C(F)(F)F)nc1)N1Cc2cccnc2C1`, the inhibition in [1] was 22%; in assay [2], 0.241%; in assay [3] it was -94.2%; in assay [4], -4.27%; in [5], -5.95%; in [6], -0.0961%. For the same molecule, the inhibition was 0.169% in [7] and 6.84% (inactive) in [8]. Besides, the haemolysis in [9] was 4.32%.
For the molecule `C=CCSc1nc2c(c(=O)[nH]1)C(c1ccc(N(C)C)cc1)C1=C(CCCC1=O)N2` (stereo not given), the inhibition in assay [1] is 1.16%; in assay [2], 1.79%; in [3], 15.9%; in assay [4] it was -12.3%; in [5], -40%; in assay [6] it was -0.888%. Moreover, the results for the inhibition in assay [7] and in [8] were 0.543% and -16.3% (inactive), respectively. Also, the haemolysis in [9] was -0.046%.
Take `O=C(Nc1ccc(Oc2ccccc2)cc1)c1ccc(-c2nn[nH]n2)nc1`: the inhibition in assay [1] was 15.2%; in assay [2] it was -1.31%; in assay [3], -10.3%; in [4], 10.6%; in assay [5] it was 0.676%; in assay [6], -0.682%. Besides, the inhibition was -0.673% in [7] and 15% (inactive) in assay [8]. The haemolysis in assay [9] was -0.153%.
For the molecule `O=C(N/N=C/C1CCOCC1)c1ccncc1`, the inhibition in assay [1] is 13.2%; in [2], 0.357%; in assay [3], -26.5%; in assay [4] it was 1.11%; in assay [5], -1.62%; in [6], -2.72%. The inhibition in assay [7] was 4.75%; in [8] it was 16% (inactive). Further, the haemolysis in assay [9] turned out to be 1.63%.
As to `O=C(Nc1ccc(-c2nn[nH]n2)cc1)c1ccc(Oc2ccccc2)cc1`, the inhibition in [1] is 16.4%; in assay [2], -0.833%; in [3] it was -19.7%; in assay [4], 17.2%; in assay [5], 0.27%; in [6] it was -0.941%. Besides, the inhibition in assay [7] is -1.24%; in assay [8], 16.2% (inactive). Further, the haemolysis in assay [9] is -0.191%.
As for `O=C(N/N=C/c1ccncc1O)c1ccncc1`, the inhibition is 22.8% in [1]; 12.6% in [2]; 79.2% in assay [3]; 1.36% in assay [4]; 18.6% in assay [5]; -0.377% in [6]. The inhibition was -1.89% in assay [7] and 22% (inactive) in assay [8]. Moreover, the haemolysis in assay [9] was -0.102%.

One may read the inhibition as the drop in the measured response relative to a control, in per cent.
